Experimental data reported in patent US20250051375A1, “ANTI-HIV COMPOUNDS” (Gilead Sciences, Inc., priority 2023, published 2025).
pEC50: −log10 of the molar value. Converted amounts (≈) assume the structure as drawn.

Columns and labels:
[1] = PBS Stability Assay; assay type: physicochemical; conditions: phosphate buffered saline pH 7.4; for half-life at 2 μM: buffer, pH 7.4, 2 μM, read-out: PBS T½; for PBS T½: 2 μM
Method in brief: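 Test compound at 2 μM final was incubated in PBS, pH 7.4, and sampled at 0, 10, 20, 30, 60 and 120 min into acetonitrile/1% formic acid quench with labetalol internal standard. Remaining compound was quantified by LC-MS peak-area ratio, and half-life came from a first-order exponential fit.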

[2] = Intestinal S9 Assay (dog GI S9); assay type: in vitro ADME; conditions: 1.0 mg/mL S9 protein; for half-life at 2 μM: dog, TRIS pH 7.4, read-out: Dog GI S9 T½
Method in brief: (§1)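 Pooled dog or human intestinal S9 at 1.0 mg/mL protein in TRIS buffer pH 7.4 with ZnCl2 and MgCl2; compound at 2 μM, sampled 0–120 min and quenched. Remaining parent by LC-MS peak area ratio; half-life from first-order exponential decline fit.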

[3] = Intestinal S9 Assay (human GI S9); assay type: in vitro ADME; conditions: 1.0 mg/mL S9 protein; for half-life at 2 μM: human, TRIS pH 7.4, read-out: Human GI S9 T½
Method in brief: as §1

[4] = molecular target: bovine intestinal alkaline phosphatase (Bos taurus (Bovine), UniProt P19111); assay: BiALP: conversion by bovine intestinal alkaline phosphatase; assay type: in vitro ADME; conditions: 2 μM substrate, 100 ng/mL iALP, Tris pH 7.8, 37° C., 60 minutes
Sequence of bovine intestinal alkaline phosphatase (P19111 20-506): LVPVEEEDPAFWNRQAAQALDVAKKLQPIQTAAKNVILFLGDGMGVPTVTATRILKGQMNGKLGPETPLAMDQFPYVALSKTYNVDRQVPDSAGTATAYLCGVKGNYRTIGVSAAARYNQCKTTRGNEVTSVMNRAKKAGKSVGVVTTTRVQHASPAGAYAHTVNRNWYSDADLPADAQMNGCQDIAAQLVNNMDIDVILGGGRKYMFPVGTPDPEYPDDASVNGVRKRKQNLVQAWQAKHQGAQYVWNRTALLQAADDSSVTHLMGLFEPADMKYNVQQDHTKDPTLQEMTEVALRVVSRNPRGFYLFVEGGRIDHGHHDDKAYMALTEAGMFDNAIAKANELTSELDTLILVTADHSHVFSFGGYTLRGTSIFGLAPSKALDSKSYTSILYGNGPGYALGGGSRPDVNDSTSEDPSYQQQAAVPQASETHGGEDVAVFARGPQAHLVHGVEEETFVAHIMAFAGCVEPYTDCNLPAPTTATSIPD
Method in brief: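 Compounds at 2 μM final were incubated 60 min at 37° C in 0.1 M Tris-HCl pH 7.8 with 1 mM MgCl2 and 1 mM ZnCl2, with or without 100 ng/mL iALP (0.01 units/mL). Samples were quenched with acetonitrile/formic acid containing labetalol. Conversion was quantified by LC-MS peak area ratios against a 2 μM product standard.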

[5] = test system: HIV-1 IIIB strain; assay: MT-4 HIV Wild Type Virus Infection Assay (IIIB Virus); assay type: cell-based; conditions: Human immunodeficiency virus 1, IIIB, MT4, 120 h, MT-4 cells acutely infected with HIV-1 IIIB, 5 day incubation, Cell-titer glo
Method in brief: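 MT-4 cells at 2×10^6 cells/ml in RPMI/10% FBS were acutely infected with HIV-1 IIIB for 1 h at 37° C, diluted 25× and added to serially diluted compounds. After 5 days at 37° C, viability read by CellTiter-Glo luminescence; EC50 from dose-response curves.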

[6] = Solubility in FaSSIF; conditions: 23 °C, pH 6.5, fassif, thermodynamic from solid
Method in brief: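 Concentration measured by HPLC-UV after solid compound was dosed at 5 mg/mL into pH 6.5 fasted-state simulated intestinal fluid containing taurocholate and lecithin (4:1 molar) and vortexed.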

SMILES | half-life at 2 μM [1] [h] | Dog GI S9 [Intermediate A] ([2]; 2 μM, TRIS pH 7.4) [nM] | Dog GI S9 [Intermediate A] % ([2]; 2 μM, TRIS pH 7.4) [%] | half-life at 2 μM [2] [h] | Human GI S9 [Intermediate A] ([3]; 2 μM, TRIS pH 7.4) [nM] | Human GI S9 [Intermediate A] % ([3]; 2 μM, TRIS pH 7.4) [%] | half-life at 2 μM [3] [h] | [Compound] [4] [nM] | biALP Intermediate A or [Amprenavir] (% of total) [4] | [Intermediate A] or [Amprenavir] ([4]; parent formed) [nM] | pEC50 [5] | solubility at 2 h [6] [µg/mL] | PBS T½ [1] [h] | Human GI S9 T½ ([3]; 2 μM, TRIS pH 7.4) [h]
COC(=O)N[C@H](C(=O)N[C@@H](Cc1ccc(C#Cc2cnc(N3CC4CCC(C3)N4C3COC3)nc2)cc1)[C@H](CN(Cc1c(F)cc(-c2ccn(C(F)F)n2)cc1F)NC(=O)[C@@H](NC(=O)OC)C(C)(C)C(F)(F)F)OC(=O)CC(C)(C)c1c(CC(=O)Nc2cccc(C(=O)O)c2)cc(C)cc1OP(=O)(O)O)C(C)(C)C(F)(F)F [Example 14] | 5.58 | 210.8 | 13.8 | 6.69 | 58.5 | 3.9 | 10.1 | 2276.6 | 2.2 % of total | 50.3 | 6.75 | < 1000 |  | 
COC(=O)N[C@H](C(=O)N[C@@H](Cc1ccc(C#Cc2ccc(N3CC4CCC(C3)N4C3COC3)nc2)cc1)[C@H](CN(Cc1c(F)cc(-c2ccn(C(F)F)n2)cc1F)NC(=O)[C@@H](NC(=O)OC)C(C)(C)C(F)(F)F)OC(=O)CC(C)(C)c1c(CC(=O)Nc2cccc(C(=O)OO)c2)cc(C)cc1CP(=O)(O)O)C(C)(C)C(F)(F)F [Example 15] | 4.8 |  |  | 3.95 |  |  | 8.95 | 2690.4 |  |  | 6.79 | < 1000 |  | 
COC(=O)N[C@H](C(=O)N[C@@H](Cc1ccc(C#Cc2cnc(N3CC4CCC(C3)N4C3COC3)nc2)cc1)[C@H](CN(Cc1c(F)cc(-c2ccn(C(F)F)n2)cc1F)NC(=O)[C@@H](NC(=O)OC)C(C)(C)C(F)(F)F)OC(=O)CC(C)(C)c1c(CC(=O)NCCS(=O)(=O)O)cc(C)cc1OP(=O)(O)O)C(C)(C)C(F)(F)F [Example 24] |  |  |  | 2.24 |  |  | 3.78 | 1717.9 |  |  | 6.88 | 4660 (≈ 2920 µM) | 13.2 | 
COC(=O)N[C@H](C(=O)N[C@@H](Cc1ccc(C#Cc2cnc(N3CC4CCC(C3)N4C3COC3)nc2)cc1)[C@H](CN(Cc1c(F)cc(-c2ccn(C(F)F)n2)cc1F)NC(=O)[C@@H](NC(=O)OC)C(C)(C)C(F)(F)F)OC(=O)CC(C)(C)c1c(CC(=O)NCC(=O)NS(C)(=O)=O)cc(C)cc1OP(=O)(O)O)C(C)(C)C(F)(F)F [Example 27, (5S,10S,11S,14S)-8-(4-(1-(difluoromethyl)-1H-pyrazol-3-yl)-2,6-difluorobenzyl)-11-(4-((2-(8-(oxetan-3-yl)-3,8-diazabicyclo[3.2.1]octan-3-yl)pyrimidin-5-yl)ethynyl)benzyl)-3,6,13,16-tetraoxo-5,14-bis(1,1,1-trifluoro-2-methylpropan-2-yl)-2,17-dioxa-4,7,8,12,15-pentaazaoctadecan-10-yl 3-methyl-3-(4-methyl-2-(2-((2-(methylsulfonamido)-2-oxoethyl)amino)-2-oxoethyl)-6-(phosphonooxy)phenyl)butanoate] | 6.41 |  |  | 1.82 |  |  | 2.46 | 2082.4 |  |  | 6.76 | 4420 (≈ 2730 µM) |  | 
COC(=O)N[C@H](C(=O)N[C@@H](Cc1ccc(C#Cc2cnc(N3CC4CCC(C3)N4C3COC3)nc2)cc1)[C@H](CN(Cc1c(F)cc(-c2ccn(C(F)F)n2)cc1F)NC(=O)[C@@H](NC(=O)OC)C(C)(C)C(F)(F)F)OC(=O)CC(C)(C)c1c(CC(=O)NC/C(N)=N/O)cc(C)cc1OP(=O)(O)O)C(C)(C)C(F)(F)F [Example 28, (5S,10S,11S,14S)-8-(4-(1-(difluoromethyl)-1H-pyrazol-3-yl)-2,6-difluorobenzyl)-11-(4-((2-(8-(oxetan-3-yl)-3,8-diazabicyclo[3.2.1]octan-3-yl)pyrimidin-5-yl)ethynyl)benzyl)-3,6,13,16-tetraoxo-5,14-bis(1,1,1-trifluoro-2-methylpropan-2-yl)-2,17-dioxa-4,7,8,12,15-pentaazaoctadecan-10-yl 3-(2-(2-(((Z)-2-amino-2-(hydroxyimino)ethyl)amino)-2-oxoethyl)-4-methyl-6-(phosphonooxy)phenyl)-3-methylbutanoate] |  |  |  | 11.4 |  |  |  | 2478.7 |  |  | 6.51 | 15 (≈ 9.64 µM) | 13.2 | 13.2
COC(=O)N[C@H](C(=O)N[C@@H](Cc1ccc(C#Cc2cnc(N3CC4CCC(C3)N4C3COC3)nc2)cc1)[C@H](CN(Cc1c(F)cc(-c2ccn(C(F)F)n2)cc1F)NC(=O)[C@@H](NC(=O)OC)C(C)(C)C(F)(F)F)OC(=O)CC(C)(C)c1c(CC(=O)N[C@@]2(C(=O)O)CCOC2)cc(C)cc1OP(=O)(O)O)C(C)(C)C(F)(F)F [Example 29] | 8.62 |  |  | 0.822 |  |  | 3.31 | 1878.7 |  |  | 6.67 | 4970 (≈ 3110 µM) |  | 
COC(=O)N[C@H](C(=O)N[C@@H](Cc1ccc(C#Cc2cnc(N3CC4CCC(C3)N4C3COC3)nc2)cc1)[C@H](CN(Cc1c(F)cc(-c2ccn(C(F)F)n2)cc1F)NC(=O)[C@@H](NC(=O)OC)C(C)(C)C(F)(F)F)OC(=O)CC(C)(C)c1c(CC(=O)N[C@]2(C(=O)O)CCOC2)cc(C)cc1OP(=O)(O)O)C(C)(C)C(F)(F)F [Example 30] | 8.56 |  |  | 1.17 |  |  | 4.11 | 1521.8 |  |  | 6.71 | 5370 (≈ 3360 µM) |  | 
COC(=O)N[C@H](C(=O)N[C@@H](Cc1ccc(C#Cc2cnc(N3CC4CCC(C3)N4C3COC3)nc2)cc1)[C@H](CN(Cc1c(F)cc(-c2ccn(C(F)F)n2)cc1F)NC(=O)[C@@H](NC(=O)OC)C(C)(C)C(F)(F)F)OC(=O)CC(C)(C)c1c(CC(=O)N[C@@H](CCS(=O)(=O)O)C(=O)O)cc(C)cc1OP(=O)(O)O)C(C)(C)C(F)(F)F [Example 33] | 5.71 |  |  | 1.51 |  |  | 3.72 | 1487.1 |  |  | 7.18 | 4240 (≈ 2570 µM) |  | 
COC(=O)N[C@H](C(=O)N[C@@H](Cc1ccc(C#Cc2cnc(N3CC4CCC(C3)N4C3COC3)nc2)cc1)[C@H](CN(Cc1c(F)cc(-c2ccn(C(F)F)n2)cc1F)NC(=O)[C@@H](NC(=O)OC)C(C)(C)C(F)(F)F)OC(=O)CC(C)(C)c1c(CC(=O)NC(CCP(=O)(O)O)C(=O)O)cc(C)cc1OP(=O)(O)O)C(C)(C)C(F)(F)F (stereo partly drawn) [Example 35] | 3.27 |  |  | 0.235 |  |  | 3.21 | 2145.2 |  |  | 7.18 | 3560 (≈ 2160 µM) |  | 
COC(=O)N[C@H](C(=O)N[C@@H](Cc1ccc(C#Cc2cnc(N3CC4CCC(C3)N4C3COC3)nc2)cc1)[C@H](CN(Cc1c(F)cc(-c2ccn(C(F)F)n2)cc1F)NC(=O)[C@@H](NC(=O)OC)C(C)(C)C(F)(F)F)OC(=O)CC(C)(C)c1c(CC(=O)NC23CC(C(=O)O)(C2)C3)cc(C)cc1OP(=O)(O)O)C(C)(C)C(F)(F)F [Example 38] | 5.16 |  |  | 6.52 |  |  | 7.82 | 1920.9 |  |  | 6.52 | 3500 (≈ 2200 µM) |  | 
COC(=O)N[C@H](C(=O)N[C@@H](Cc1ccc(C#Cc2cnc(N3CC4CCC(C3)N4C3COC3)nc2)cc1)[C@H](CN(Cc1c(F)cc(-c2ccn(C(F)F)n2)cc1F)NC(=O)[C@@H](NC(=O)OC)C(C)(C)C(F)(F)F)OC(=O)CC(C)(C)c1c(CC(=O)N[C@@H](Cc2ccc(C(=O)O)cc2)C(=O)O)cc(C)cc1OP(=O)(O)O)C(C)(C)C(F)(F)F [Example 45] | 4.74 |  |  | 0.993 |  |  | 6.23 | 1787.4 |  |  | 6.68 | 4300 (≈ 2570 µM) |  | 
COC(=O)N[C@H](C(=O)N[C@@H](Cc1ccc(C#Cc2cnc(N3CC4CCC(C3)N4C3COC3)nc2)cc1)[C@H](CN(Cc1c(F)cc(-c2ccn(C(F)F)n2)cc1F)NC(=O)[C@@H](NC(=O)OC)C(C)(C)C(F)(F)F)OC(=O)CC(C)(C)c1c(CC(=O)NCc2ccc(C(=O)O)cc2)cc(C)cc1OP(=O)(O)O)C(C)(C)C(F)(F)F [Example 49] | 5.66 |  |  | 2.59 |  |  | 5.5 | 2175 |  |  | 6.65 | 1220 (≈ 754 µM) |  | 
